The values below come from patent US8412459B2, “Method for determining the allergic potential of a compound” (Vlaamse Instelling Voor Technologisch Onderzoek (VITO), priority 2006, dated 2013).

One series concerns CD34-DCs. The experiment in a line: RT-PCR gene expression in CD34-DCs; classification model (lda + quadratic discriminant) on NINJ, PBEF1, CCR7, CREM, leave-one-compound-out cross validation. Conditions: LFC of NINJ, exposure 6, 12 and 24 h at concentration of EC20, on average 3 individuals, test compound left out of training.
For series [1] the following is noted: a priori known, from literature / in vivo tests; cited from earlier work.

Protocol for CD34-DCs: Expression of every gene was measured after exposure to each of the 9 different compounds (control solvent). For each compound on average 3 different unrelated individuals were used for exposure. On average sample from 3 different individuals were used per compound. Each exposure consisted of 3 exposure times (6, 12 and 24 hours) and three different concentrations were used for each exposure experiment.
To quantify the separation of the two groups one can use e.g. a linear discriminant analysis (lda). This method determines the direction(s) in space (in our case one direction in a 3D space) in which the discrimination between the groups is maximal. […] Mathematically, this projection is a linear combination of the LFC at 6, 12 and 24 hours; this linear combination of LFC's will be called the feature value. On this feature data per gene an F-test can be performed to assess the significance (p-value) of the separation.
One can now set a threshold and only retain those genes with a p-value below it.
To this end the lda was again used to find the two dimensional subspace in which the separation between the two groups is optimal. The variables on the two axes of this space are now a linear combination of the four feature values of the four genes. We will call the x- and y-variable respectively feature value 1 and 2. Note that these feature values are trained by the data.
For this quadratic model, the decision boundary separating the two groups is a conic section, in this case an ellipse.
First one chooses one of the 9 compounds and removes the corresponding measurements from the dataset.
Next one repeats the lda optimization and the construction of a quadratic discriminant model as described in the previous step.
Next the data of the removed compound are fed into the classification model and used to predict the class to which the compound belongs.

Regarding `C[S+](C)[O-]` [DMSO, dimethylsulfoxide], the “class predicted by the classification model in cross validation (sensitizer / non-sensitizer)” value with CD34-DCs is reported as “non-sensitizers”. Turning to `O=[N+]([O-])c1ccc(Cl)c([N+](=O)[O-])c1` [DNCB, 1-chloro-2,4-dinitrobenzene], the “known sensitizing classification / strength” value in series [1] is listed as “strong sensitizer”. As to `C=CCc1ccc(O)c(OC)c1` [Eugenol, 2-Methoxy-4-(2-propenyl)phenol], in series [1], the “known sensitizing classification / strength” value was “weak sensitizing capacity”. For the molecule `CCC[CH2][Sn]([Cl])([CH2]CCC)[CH2]CCC` [TBT, Tributyltin chloride], in the series on CD34-DCs, the “class predicted by the classification model in cross validation (sensitizer / non-sensitizer)” value was “non-sensitizers”. Still for that read-out and setting: the same measure for tritonX-100: “non-sensitizers”.
